Values of other authors as cited in patent US11389512B2, “Use of low molecular weight fractions of human serum albumin in treating diseases” (Ampio Pharmaceuticals, Inc., priority 2015, dated 2022).

Legend:
[1] = in vivo
[2] = system: platelet activating factor

Row | Compound | time to be cleared from the body [1] [days] | inhibition of platelet activating factor [2]
1 | CC(=O)Oc1ccccc1C(=O)O [aspirin, acetylsalicylic acid] | 5 | 
2 | CC1NC(=O)C(CC(=O)O)NC1=O (centres unmarked) [DA-DKP, 3-methyl-2,5-diketopiperazine-6-acetic acid] |  | inhibit
